Results taken from article PMC7456963, “HPLC-Based Activity Profiling for Antiprotozoal Compounds in Croton gratissimus and Cuscuta hyalina” (Frontiers in Pharmacology, 2020).
Where “and” joins values, the source holds several entries; their conditions need not be identical. Equal values may be shown once. Read-outs that look alike come from different tables or passages of the source.

Assays:
[1] = test system: P. falciparum NF54 erythrocytic stages; experiment: Activity against Plasmodium falciparum (3H-hypoxanthine incorporation); assay type: cell-based; details: for IC50: read-out: IC50 P. falciparum; for Selectivity index (SI): IC50 in L6 cells divided by IC50 in P. falciparum: L6 cells vs P. falciparum NF54
Experimental: In vitro activity against the erythrocytic stages of P. falciparum was determined using a ^3H-hypoxanthine incorporation assay ([Desjardins et al., 1979]), using the drug sensitive NF54 strain ([Ponnudurai et al., 1981]). Compounds were dissolved in DMSO at 10 mg/ml and further diluted in medium before addition to parasite cultures incubated in RPMI 1640 medium without hypoxanthine, supplemented with HEPES (5.94 g/L), NaHCO3 (2.1 g/L), neomycin (100 U/ml), Albumax^R (5 g/L), and washed human red cells A^+ at 2.5% haematocrit (0.3% parasitemia). Serial drug dilutions of 11 three-fold dilution steps covering a range from 100 to 0.002 μg/ml were prepared. The 96-well plates were incubated in a humidified atmosphere at 37°C; 4% CO2, 3% O2, 93% N2. After 48 h, 50 μl of ^3H-hypoxanthine (=0.5 μCi) was added to each well of the plate. The plates were incubated for a further 24 h under the same conditions. The plates were then harvested with a Betaplate™ cell harvester (Wallac, Zurich, Switzerland), the red blood cells transferred onto a glass fibre filter, and lysed with distilled water. The dried filters were inserted into a plastic foil with 10 ml of scintillation fluid and counted in a Betaplate™ liquid scintillation counter (Wallac, Zurich, Switzerland). IC50 values were calculated from sigmoidal inhibition curves by linear regression using Microsoft Excel. Chloroquine (Sigma C6628) was used as control. Assays were performed in two independent replicates at least.

[2] = test system: L. donovani strain MHOM/ET/67/L82 axenic amastigotes; experiment: Activity against Leishmania donovani axenic amastigotes (resazurin); assay type: cell-based; details: for Selectivity index (SI): IC50 in L6 cells divided by IC50 in L. donovani axenic amastigotes: L6 cells vs axenic L. donovani; for IC50: MHOM/ET/67/L82, pH 5.4, 70 h + 2 h resazurin, mean ± absolute deviation, at least two replicates, read-out: IC50 L. donovani Axenic
Experimental: Amastigotes of L. donovani strain MHOM/ET/67/L82 were grown under an atmosphere of 5% CO2 in air in axenic culture at 37°C in SM medium ([Cunningham, 1977]) at pH 5.4 supplemented with 10% heat-inactivated fetal bovine serum. 50 µL of culture medium was added in the wells of a 96-well plate and serial drug dilutions of eleven three-fold dilution steps covering a final range from 100 to 0.002 μg/ml were prepared. 50 µL culture medium with 2 × 10^5 amastigotes from axenic culture were added to each well. After 70 h of incubation the plates were inspected under an inverted microscope to assure growth of the controls and sterile conditions. 10 μl of resazurin (12.5 mg resazurin dissolved in 100 ml distilled water) were added to each well and the plates incubated for another 2 h. Then the plates were read with a Spectramax Gemini XS microplate fluorometer (Molecular Devices Cooperation, Sunnyvale, CA, USA) using an excitation wavelength of 536 nm and an emission wavelength of 588 nm. Data were analyzed using the software Softmax Pro (Molecular Devices Cooperation, Sunnyvale, CA, USA). Decrease of fluorescence (= inhibition) was expressed as percentage of the fluorescence of untreated control cultures and plotted against the drug concentrations. From the sigmoidal inhibition curves the IC50 values were calculated. Miltefosine was used as positive control drug. Assays were performed in two independent replicates at least.

[3] = test system: L. donovani amastigotes in mouse peritoneal macrophages; experiment: Activity against Leishmania donovani intramacrophage amastigotes (high-content imaging); assay type: cell-based; details: amastigotes in mouse peritoneal macrophages, 96 h, read-out: IC50 L. donovani Intramacrophage
Experimental: (§1) Macrophages were isolated from the mouse (CDI) peritoneal cavity ([Zhang et al., 2008]) using 2% starch solution as eliciting agent injected 2 day prior to cell harvest. Animal work was carried out according to the rules and regulations for the protection of animal rights (“Tierschutzverordnung”) of the Swiss “Bundesamt für Veterinärwesen” (License number 2374). Mouse peritoneal macrophages (4 × 10^4 in 100 µL RPMI 1640 medium with 10% heat-inactivated FBS) were seeded into wells of a 96-well plate. After 24 h, 2 × 10^5 amastigote L. donovani in 100 µL were added. The amastigotes were taken from an axenic amastigote culture grown at pH 5.4. The medium containing free amastigote forms was removed after 24 h and replaced with fresh medium. The washing step was repeated and afterward the serial drug dilution was prepared with at least 6 dilution steps. Compounds were dissolved in DMSO at 10 mg/ml and further diluted in medium. After 96 h of incubation at 37°C under a 5% CO2 atmosphere, the medium was removed, and cells were fixed by adding 50 µl 4% formaldehyde solution followed by a staining with a 5 µM DRAQ5 solution. Plates were imaged in ImageXpress XLS (MD) microscope using a 20× air objective (635 nm excitation: 690/50 emission). 9 images were collected per well. Automated image analysis was performed with a script developed on Meta Xpress Software (MD). Three outputs were provided for each well: i) number of host cell nuclei; ii) numbers of infected and non-infected host cells; iii) number of parasite nuclei per infected host cell. The IC50 values were calculated based on the infection rate and the numbers of intracellular amastigotes. The cytotoxicity to macrophages was determined in parallel, and IC50 values were calculated based on the numbers of surviving, uninfected macrophages. Miltefosine was used as control. Assays were performed in two independent replicates at least.

[4] = test system: T. b. rhodesiense STIB 900 bloodstream forms; experiment: Activity against Trypanosoma brucei rhodesiense STIB900 (resazurin); assay type: cell-based; details: for Selectivity index (SI): IC50 in L6 cells divided by IC50 in T. b. rhodesiense: L6 cells vs T. b. rhodesiense STIB 900; for IC50: STIB 900 bloodstream forms, 70 h + resazurin, mean ± absolute deviation
Experimental: The stock was originally isolated from a patient and adapted to axenic culture conditions after several mouse passages and cloned. Minimum Essential Medium (50 µl) supplemented with 25 mM HEPES, 1 g/L additional glucose, 1% MEM non-essential amino acids (100×), 0.2 mM 2-mercaptoethanol, 1 mM Na-pyruvate ([Baltz et al., 1985]) and 15% heat inactivated horse serum was added to each well of a 96-well microtiter plate. Serial drug dilutions of eleven 3-fold dilution steps covering a range from 100 to 0.002 μg/ml were prepared. Then 4 × 10^3 bloodstream forms of T. b. rhodesiense STIB 900 in 50 µL were added to each well and the plate incubated for 70 h at 37°C and under a 5% CO2 atmosphere. 10 µL resazurin solution (resazurin, 12.5 mg in 100 ml double-distilled water) was then added to each well and incubation continued for a further 2–4 h ([Räz et al., 1997]). Plates were read with a Spectramax Gemini XS microplate fluorometer (Molecular Devices Cooperation, Sunnyvale, CA, USA) using an excitation wavelength of 536 nm and an emission wavelength of 588 nm. […] Melarsoprol (Arsobal Sanofi-Aventis, received from WHO) was used as control. Assays were performed in two independent replicates at least.

[5] = Cytotoxicity to macrophages determined in parallel to the intramacrophage assay; assay type: cell-based; details: CDI, surviving, uninfected mouse peritoneal macrophages
Experimental: as §1

[6] = In vitro cytotoxicity with L-6 cells (resazurin); assay type: cell-based, rat; details: rat; L6 cells, 70 h + 2 h resazurin; mean ± absolute deviation
Experimental: Assays were performed in 96-well microtiter plates, each well containing 100 µl of RPMI 1640 medium supplemented with 1% L-glutamine (200 mM) and 10% fetal bovine serum, and 4000 L-6 cells (a primary cell line derived from rat skeletal myoblasts) ([Ahmed et al., 1994]). Serial drug dilutions of 11 three-fold dilution steps covering a range from 100 to 0.002 μg/ml were prepared 24 h post seeding L-6 cells. The plates were incubated for 70 h and inspected under an inverted microscope to assure growth of the controls and sterile conditions. 10 µl of resazurin was then added to each well and the plates incubated for another 2 h. Then the plates were read with a Spectramax Gemini XS microplate fluorometer (Molecular Devices Cooperation, Sunnyvale, CA, USA) using an excitation wavelength of 536 nm and an emission wavelength of 588 nm. The IC50 values were calculated by linear regression and four-parameter logistic regression from the sigmoidal dose inhibition curves using SoftmaxPro software (Molecular Devices Cooperation, Sunnyvale, CA, USA). Podophyllotoxin (Sigma P4405) was used as positive control. All assays were performed in two independent replicates at least. Activities of all compounds were expressed in µM using the formula: […]

[7] = Leishmania donovani, pH 5.4, axenic amastigotes
[8] = Leishmania donovani, Peritoneal macrophage
[9] = Plasmodium falciparum, NF54, 72 h, NF54 drug sensitive strain, erythrocytic stages, 72 h, mean ± absolute deviation
[10] = NF54 drug sensitive strain, erythrocytic stages, 72 h, mean ± absolute deviation

Compound | IC50 ([1]; Plasmodium falciparum, NF54, 72 h) [µM] | Selectivity index (SI): IC50 in L6 cells divided by IC50 in L. donovani axenic amastigotes [2] | IC50 [2, 7] [µM] | IC50 [3, 8] [µM] | Selectivity index (SI): IC50 in L6 cells divided by IC50 in T. b. rhodesiense [4] | IC50 ([4]; Trypanosoma brucei, 70 h) [µM] | Selectivity index (SI): IC50 in L6 cells divided by IC50 in P. falciparum [1] | IC50 [1, 9] [µM] | IC50 at 96 h [5] [µM] | IC50 [1, 10] [µM] | IC50 at 70 h [6] [µM] | IC50 ([2]; axenic amastigotes) | IC50 [3] [µM] | IC50 [4] [µM] | IC50 P. falciparum [1, 10]
CCN(CC)CCCC(C)Nc1ccnc2cc(Cl)ccc12 (stereo not shown) [Chloroquine, reference compound] | 0.01 ± 0.002 |  |  |  |  |  |  |  |  |  |  |  |  |  | 
COc1ccc(-c2oc3cc(O)cc(O)c3c(=O)c2OC)cc1OC [Compound 1, Quercetin-3,3′,4′-trimethylether] |  | 9.8 | 15 to 22 | > 79.9 | 3.4 | 55.1 ± 13.2 | 4.4 | 42.1 ± 12.5 | 154 ± 19.3 |  |  |  |  |  | 
COc1cc(O)c2c(=O)c(OC)c(-c3ccc(OC)c(O)c3)oc2c1 [Compound 2, Ayanin] |  | 12.2 | 8.2 ± 1.6 | > 95.9 | 8.9 | 11.2 ± 0.2 | 12.9 | 7 to 8 | 128 ± 3.5 | 7.8 ± 0.9 |  |  |  |  | 
COc1cc(O)c2c(=O)c(OC)c(-c3ccc(OC)c(OC)c3)oc2c1 [Compound 3, Retusin] |  | 6.3 | 34.1 ± 4.7 | > 186 | 2.6 | > 80 | 9.2 | 23.4 ± 3.8 | 173 |  | 215 ± 4.7 |  |  |  | 
COc1cc(O)c2c(=O)c(OC)c(-c3ccc(O)c(O)c3)oc2c1 [Compound 6, Quercetin-3,7-dimethylether] |  | 12.3 | 4.5 ± 0.3 | > 66.7 | 23.2 | 2.4 ± 0.5 | 7.6 | 7 to 8 | 102 ± 49.7 | 7.3 ± 0.6 |  |  |  |  | 
CC(=O)O[C@H]1[C@H]2c3c(ccc4c(=O)cc(-c5ccccc5)oc34)O[C@H]2OC1(C)C [Compound 12, (-)-(3′′S,4′′R,5′′S)-Pseudosemiglabrin] |  | 4.1 | 18.9 ± 2.6 | > 84.2 | 2.1 | 37.5 ± 6.1 | 4.8 | ~20 | 145 ± 10.5 | 16.3 ± 2.7 |  |  |  |  | 
O=c1c(O)c(-c2ccc(O)cc2)oc2cc(O)cc(O)c12 [Compound 13, Kaempferol] |  | 5.3 | 20.8 ± 1.7 | > 115 | 3.1 | 36.4 ± 8.7 | 2.1 | 53.1 ± 7.7 | 151 ± 18.8 |  |  |  |  |  | 
CCCCCCCCCCCCCCCCOP(=O)([O-])OCC[N+](C)(C)C [Miltefosine, reference compound] |  |  | 0.5 ± 0.2 | 6.6 ± 0.3 |  |  |  |  | > 24.1 |  |  |  |  |  | 
COc1cc([C@@H]2c3cc4c(cc3[C@H](O)[C@H]3COC(=O)[C@H]23)OCO4)cc(OC)c1OC [Podophyllotoxin, reference compound] |  |  |  |  |  |  |  |  |  |  | 0.03 ± 0.005 |  |  |  | 
(+)-(7S,7′S,8R,8′R)-Pinoresinol [Compound 10] |  | 1.6 |  |  | 2.1 |  |  |  |  | > 140 |  | > 150 µM and 151 µM | > 279 | 116.8 ± 0.3 | least active
